Test results taken from patent US20250312468A1, “ANTI-PROTAC ANTIBODIES AND COMPLEXES” (Merck Patent GmbH, priority 2021, published 2025).

Key:
[1] = Storage stability of antibody-PROTAC complexes (DLS, SE-HPLC, visible changes); assay type: physicochemical; conditions: no storage time/temperature printed
Description: Storage stability of antibody-PROTAC complexes was assessed after complexation (6 mg/ml, 650 rpm, 3 h, rt) by incubation in the fridge at 4° C. over 96 h as well as snap-freezing the complexes and storage at −80° C. for 24 h or at −20° C. at 96 h. Subsequently the samples were checked for visible changes, the polydispersity was assessed using DLS measurements and the loading was measured via SE-HPLC (Table 6). Samples with polydispersity up to 15% are considered monodisperse.

MDAMB468 cells = assay: CellTiter-Glo cell viability assay (MIC2-based PAX); conditions: MDAMB468, complexes at 50% (1:1) loading, three independent experiments
Description: 2000 cells per well were seeded into white-opaque 384-well plates followed by overnight incubation in a humid chamber at 37° C. and 5% CO2. […] The assay was developed after 3 days if not otherwise stated using CellTiter-Glo Luminescent Cell Viability Assay as described in the manufacturer's protocol. In brief, the plates were equilibrated to room temperature for 30 minutes. 100 mL CellTiter-Glo Buffer were added to the CellTiter-Glo Substrate Flask and mixed well. 30 μL of the reagent was transferred to each well. After incubation for 3 minutes at room temperature while shaking at 550 rpm, the plate was incubated for another 10 minutes at room temperature. The luminescence was read on an Envision reader. The evaluation was performed using GraphPad Prism 8 by normalization of cells treated with sample to untreated cells. The data were fitted with 4 point logistic curve to determine the IC50 value.

[2] = mouse, in vivo
Description: After shaking/vortexing for 1 min, samples were filtered, (Captiva filtration on polypropylene filter, 0.45 μm pore size) and 120 μL of methanol:water (1:1, v/v) was added to the filtrate and stored at 4° C. until analysis and put in the autosampler before injection. The analysis was carried out on a LC-MS/MS system consisting of an UPLC coupled to a QTRAP 6500+ (Sciex) mass spectrometer. Mobile phase A was water with 0.1% formic acid and mobile phase B was methanol with 0.1% formic acid. […] The chromatography was performed on a Poroshell 120 EC-C18 column, 2.7 μm particles, 3×50 mm, from Agilent Technologies. […] The calibration curve for quantitation was based on standards ranging from 0.5 (Lower Limit of Quantitation) to 10000 (Upper Limit of Quantitation) ng/ml, with 5 calibration points minimum and minimum 75% of calibration standards to be within […] of their nominal values. The total antibody concentration was determined by ligand binding assay (LBA) based on the Meso Scale Diagnostics technology (MSD, LLC., Rockville, MD). […] After a final washing step, 150 μL of 2×MSD Read Buffer T with surfactant (MSD, #R92TC) was added to each well and plates were read on a MESO Quickplex SQ120 plate reader (MSD). […] The lower limit of quantification (LLOQ) was 50 ng/ml.

MV411 xenograft = MV411 xenograft efficacy study in female CB17 SCID mice; assay type: in vivo, mouse
Description: Human leukemic MV411 cells were xenografted in immunocompromised mice. Three million MV411 cells were injected subcutaneously in the left flank of untreated female CB17 SCID mice. Randomization of the animals in the different treatment groups and the initiation of the treatment was started after the average tumor size reached 45 mm^2. The control groups were treated with vehicle. The test groups were treated with 0.38 mg/kg GNE987 and 30 mg/kg CD33xMIC7+GNE987 (loaded with 0.38 mg/kg GNE987) once (at day 1). Further, two groups were treated twice, either with 30 mg/kg CD33xMIC7+GNE987 (loaded with 0.38 mg/kg GNE987) at day 1 followed by treatment with 0.38 mg/kg GNE987 at day 8 or with 0.38 mg/kg GNE987 at day 1 and 8. Additionally, one group received 30 mg/kg CD33xMIC5+GNE987 (loaded with 0.38 mg/kg GNE987) once (at day 1) and another group received the antibody control 30 mg/kg CD33xMIC7 without PROTAC once (at day 1). The individual groups were stopped before tumors reached a maximum tumor size (225 mm^2) (FIG. 49).

Mouse serum stability = assay type: in vitro ADME; conditions: 5 μM, 37° C.
Description: The mixture was incubated 2 hours at room temperature while shaking at 650 rpm. 15% (vol/vol) 2 M HEPES buffer pH 7.55 were added to mouse serum from Biowest (Lot.no. S18169S2160) followed by sterile filtration.
The incubation was stopped by freezing at −20° C.
The concentration of PROTAC GNE987 was quantified using LC-MS.
Quantification was performed using a total antibody ELISA (FIG. 24).

Cc1ncsc1-c1ccc(CNC(=O)[C@@H]2C[C@@H](O)CN2C(=O)[C@@H](NC(=O)CCCCCCCCCCNC(=O)c2cc3c(cc2CS(C)(=O)=O)-c2cn(C)c(=O)c4[nH]cc(c24)CN3c2ncc(F)cc2F)C(C)(C)C)cc1 [GNE987]
Visible evaluation [1]: precipitation
IC50 (MDAMB468 cells): 0.79 nM
time after which PROTAC GNE987 concentration fell below LLOQ [2]: 25 h
half-life of the PROTAC GNE987 ([2]; iv, 0.4 mg/kg): 5.8 h
day post re-dosing where tumors started to grow again (MV411 xenograft; 0.38 mg/kg GNE987 at day 1 and 8): ~3 days
anti-tumor effect (in words) (MV411 xenograft; dosed once at day 1): induced anti-tumor effects
day until which tumor growth was inhibited / tumors started to progress (MV411 xenograft; single dose at day 1 (0.38 mg/kg GNE987 or 30 mg/kg PAX)): ~4 days
stability of GNE987 in mouse serum (LC-MS) (Mouse serum stability): stable over 72 hours
